Values joined by “and” are separate entries in the source; they are usually repeats but may differ in a detail not shown here. Equal values may be shown once. Toxic doses and inconclusive results are not listed. Rule as the data show it: active = T/C of 150% or more; inactive = T/C below 125%. Bridge positions count the residues as written; N and C are the ends. Peptide text beside a SMILES is read from it. I, II: the chains in the order shown.
Tested on: L1210 leukemia ip in BDF1 mice, survival T/C
Assay: NCI In Vivo Anticancer Drug Screen. Data for tumor model L1210 Leukemia (intraperitoneal) in B6D2F1 (BDF1) mice
Conditions: endpoint: mean survival time, higher = longer survival
Outline: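 Tumor cells were implanted, animals were treated, and survival was followed. The result divides the treated measurement by the vehicle-control measurement.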

[1] = dose: 100.0 mg/kg/injection, schedule: Q01DX009 (ip), vehicle: saline with Tween-80
[2] = dose: 100.0 mg/kg/injection, schedule: Q04DX003 (ip), vehicle: saline with Tween-80
[3] = dose: 200.0 mg/kg/injection, schedule: Q01DX009 (ip), vehicle: saline with Tween-80
[4] = dose: 200.0 mg/kg/injection, schedule: Q04DX003 (ip), vehicle: saline with Tween-80
[5] = dose: 400.0 mg/kg/injection, schedule: Q01DX009 (ip), vehicle: saline with Tween-80
[6] = dose: 400.0 mg/kg/injection, schedule: Q04DX003 (ip), vehicle: saline with Tween-80
[7] = dose: 100.0 mg/kg/injection, schedule: Q04DX003 (ip), vehicle: saline
[8] = dose: 200.0 mg/kg/injection, schedule: Q04DX003 (ip), vehicle: saline
[9] = dose: 400.0 mg/kg/injection, schedule: Q04DX003 (ip), vehicle: saline
[10] = dose: 100.0 mg/kg/injection, schedule: Q01DX001 (ip), vehicle: saline
[11] = dose: 200.0 mg/kg/injection, schedule: Q01DX001 (ip), vehicle: saline
[12] = dose: 400.0 mg/kg/injection, schedule: Q01DX001 (ip), vehicle: saline
[13] = dose: 100.0 mg/kg/injection, schedule: Q01DX009 (ip), vehicle: saline
[14] = dose: 200.0 mg/kg/injection, schedule: Q01DX009 (ip), vehicle: saline
[15] = dose: 400.0 mg/kg/injection, schedule: Q01DX009 (ip), vehicle: saline
[16] = dose: 100.0 mg/kg/injection, schedule: Q04DX003 (ip), vehicle: Klucel (hydroxypropylcellulose) (HPC)
[17] = dose: 200.0 mg/kg/injection, schedule: Q04DX003 (ip), vehicle: Klucel (hydroxypropylcellulose) (HPC)
[18] = dose: 400.0 mg/kg/injection, schedule: Q04DX003 (ip), vehicle: Klucel (hydroxypropylcellulose) (HPC)
[19] = dose: 100.0 mg/kg/injection, schedule: Q01DX001 (ip), vehicle: carboxymethylcellulose (CMC)
[20] = dose: 200.0 mg/kg/injection, schedule: Q01DX001 (ip), vehicle: carboxymethylcellulose (CMC)
[21] = dose: 400.0 mg/kg/injection, schedule: Q01DX001 (ip), vehicle: carboxymethylcellulose (CMC)

Measured: T/C

O=C(/C=C/c1cccc2ccccc12)c1ccccc1[N+](=O)[O-]
inactive: dose: 100.0 mg/kg/injection, schedule: Q01DX001 (ip), vehicle: saline with Tween-80 96 % of control | [1] 96 % of control and 87 % of control | dose: 100.0 mg/kg/injection, schedule: Q04DX002 (ip), vehicle: saline with Tween-80 88 % of control | [2] 96 % of control | dose: 200.0 mg/kg/injection, schedule: Q01DX001 (ip), vehicle: saline with Tween-80 96 % of control | [3] 89 % of control and 90 % of control | dose: 200.0 mg/kg/injection, schedule: Q04DX002 (ip), vehicle: saline with Tween-80 90 % of control | [4] 90 % of control | dose: 400.0 mg/kg/injection, schedule: Q01DX001 (ip), vehicle: saline with Tween-80 91 % of control | [5] 86 % of control and 90 % of control | dose: 400.0 mg/kg/injection, schedule: Q04DX002 (ip), vehicle: saline with Tween-80 88 % of control and 90 % of control | [6] 91 % of control

CCCCCCCCCCOP(OCCCCCCCCCC)Oc1ccccc1
inactive: [7] 102 % of control | [8] 93 % of control | [9] 102 % of control

C=C(Cl)COC(=S)S
inactive: [10] 107 % of control | [11] 103 % of control | [12] 100 % of control

O=[N+]([O-])c1cccc(Cl)c1/C=N/Nc1nnc(N/N=C/c2c(Cl)cccc2[N+](=O)[O-])c2ccccc12
inactive: dose: 50.0 mg/kg/injection, schedule: Q01DX001 (ip), vehicle: saline 96 % of control | [10] 96 % of control | [11] 98 % of control | [12] 98 % of control

CC(O)C(O)C(O)C(/C=N\NC(N)=S)=N/NC(N)=S (configuration not stated)
inactive: [13] 95 % of control | [7] 104 % of control | [14] 89 % of control | [8] 105 % of control | [15] 90 % of control | [9] 94 % of control

O=C(CBr)NCC(S)c1ccc(Cl)cc1 (configuration not stated)
inactive: dose: 50.0 mg/kg/injection, schedule: Q01DX009 (ip), vehicle: Klucel (hydroxypropylcellulose) (HPC) 97 % of control | dose: 100.0 mg/kg/injection, schedule: Q01DX009 (ip), vehicle: Klucel (hydroxypropylcellulose) (HPC) 95 % of control | [16] 93 % of control | [17] 88 % of control | [18] 102 % of control

Cc1ccc(C)n1-c1ccc(S(=O)(=O)c2ccc(NC(=O)CCC(=O)O)cc2)cc1
inactive: [1] 93 % of control | [3] 88 % of control | [5] 96 % of control

COC(=O)C1(C(=O)OC)C=CCCC1=O
inactive: [16] 108 % of control | [17] 107 % of control | [18] 96 % of control

C1CCCC2(CC1)CCCCC2
inactive: dose: 75.0 mg/kg/injection, schedule: Q01DX001 (ip), vehicle: saline with Tween-80 94 % of control | dose: 150.0 mg/kg/injection, schedule: Q01DX001 (ip), vehicle: saline with Tween-80 90 % of control | dose: 300.0 mg/kg/injection, schedule: Q01DX001 (ip), vehicle: saline with Tween-80 95 % of control

CCCCCCCCCCCCCCCC(=O)N(CCCC)CCCC
inactive: [19] 98 % of control | dose: 100.0 mg/kg/injection, schedule: Q01DX009 (ip), vehicle: carboxymethylcellulose (CMC) 96 % of control and 110 % of control | dose: 100.0 mg/kg/injection, schedule: Q04DX003 (ip), vehicle: carboxymethylcellulose (CMC) 96 % of control | [20] 102 % of control | dose: 200.0 mg/kg/injection, schedule: Q01DX009 (ip), vehicle: carboxymethylcellulose (CMC) 100 % of control and 110 % of control | dose: 200.0 mg/kg/injection, schedule: Q04DX003 (ip), vehicle: carboxymethylcellulose (CMC) 94 % of control | [21] 102 % of control | dose: 400.0 mg/kg/injection, schedule: Q01DX009 (ip), vehicle: carboxymethylcellulose (CMC) 96 % of control and 104 % of control | dose: 400.0 mg/kg/injection, schedule: Q04DX003 (ip), vehicle: carboxymethylcellulose (CMC) 96 % of control

NC(=S)N/N=C1\c2ccccc2-c2c(F)c(F)c(F)c(F)c21
inactive: dose: 5.0 mg/kg/injection, schedule: Q01DX001 (ip), vehicle: carboxymethylcellulose (CMC) 96 % of control | dose: 10.0 mg/kg/injection, schedule: Q01DX001 (ip), vehicle: carboxymethylcellulose (CMC) 107 % of control | dose: 20.0 mg/kg/injection, schedule: Q01DX001 (ip), vehicle: carboxymethylcellulose (CMC) 96 % of control

CCCCC(CC)CCC(O)CC (configuration not stated)
inactive: [1] 98 % of control | [2] 98 % of control | [3] 101 % of control | [4] 95 % of control | [5] 97 % of control | [6] 98 % of control

CN(CCO)N=Nc1ccccc1
inactive: dose: 6.0 mg/kg/injection, schedule: Q01DX009 (ip), vehicle: other 105 % of control | dose: 12.0 mg/kg/injection, schedule: Q01DX009 (ip), vehicle: other 96 % of control | dose: 12.5 mg/kg/injection, schedule: Q01DX009 (ip), vehicle: other 112 % of control | dose: 18.0 mg/kg/injection, schedule: Q01DX009 (ip), vehicle: other 88 % of control | dose: 25.0 mg/kg/injection, schedule: Q01DX009 (ip), vehicle: other 109 % of control

CC(C)(C)C#N
inactive: [10] 109 % of control | [11] 101 % of control | [12] 95 % of control

CC1(C)C2CCC(CCOC(=O)COc3ccc(Cl)cc3)C1C2 (configuration not stated)
inactive: [16] 98 % of control | [17] 100 % of control | [18] 100 % of control

Cc1cc(C)n(/N=C/c2ccccc2)c(=O)c1C#N
inactive: [19] 91 % of control | [20] 91 % of control | [21] 91 % of control

COc1ccc(N2CCN(/C=C/C(=O)c3ccc(C)cc3C)CC2)cc1
inactive: [2] 97 % of control | [4] 95 % of control | [6] 106 % of control

CCN1C(=O)CC(O)C1=O (configuration not stated)
inactive: [13] 101 % of control | [14] 100 % of control | [15] 97 % of control

NCC(=O)NC(CSSCC(NC(=O)CN)C(=O)O)C(=O)O (stereo not drawn) (I: H-Gly-Cys-OH / II: H-Gly-Cys-OH; disulfide I:2-II:2; configuration not given here)
inactive: dose: 75.0 mg/kg/injection, schedule: Q01DX001 (ip), vehicle: saline 99 % of control | dose: 150.0 mg/kg/injection, schedule: Q01DX001 (ip), vehicle: saline 102 % of control | dose: 300.0 mg/kg/injection, schedule: Q01DX001 (ip), vehicle: saline 100 % of control

C=CC(=O)NC12CC3CC(CC(C3)C1)C2
inactive: [10] 88 % of control | [1] 104 % of control | [11] 93 % of control | [3] 97 % of control | [12] 90 % of control | [5] 101 % of control

Cc1ccc(SCCn2cnc3c(ncn3Cc3ccccc3)c2=S)cc1
inactive: [2] 96 % of control | [4] 109 % of control | [6] 101 % of control

From PubChem BioAssay AID248 (DTP/NCI, 2004)
